Experimental data taken from patent US12202835B2, “Substituted aromatic ring-linked dioxinoquinazolines and dioxinoquinolines as kinase inhibitors” (BEIJING SCITECH-MQ PHARMACEUTICALS LIMITED, priority 2018, dated 2025).

Columns and labels:
Type in all cases: biochemical
[1] = target: c-MET kinase (Homo sapiens (Human), UniProt P08581); assay: Assay of small molecular compounds for inhibiting the activity of c-MET kinase (LANCE TR-FRET); settings: read-out: CMET IC50
Protocol: The assay is based on the LANCE TR-FRET technology of Perkin Elmer Inc., and the assay method is as follows: • 1. Dilution of compounds: a total of 11 concentrations were obtained using a 3-fold gradient dilution from the highest concentration of 2500 nM (the maximum final concentration of the drug used in this assay was 2500 nM, and the minimum final concentration was 0.042 nM). • 2. 2.5 μL of the gradient-diluted compounds were taken with a transfer pipette to a 384-well plate. • 3. Addition of enzyme: 5 μL of 2×c-MET kinase solution (with a concentration of 2 nM) was taken with a transfer pipette to the corresponding reaction well of the 384-well plate, mixed well and pre-reacted at room temperature for 5 minutes. • 4. 2.5 μL 4× Ultra ULight™-JAK-1 (Tyr1023) Peptide (with a concentration of 400 nM)/ATP (with a concentration of 40 μM) mixture was taken with a transfer pipette to the corresponding reaction well of the 384-well plate. • 5. Negative control: 2.5 μL/well 4× substrate/ATP mixture and 7.5 μL 1× Kinase Assay Buffer were added to the wells of the 384-well plate. • 6. Positive control: 2.5 μL/well 4× substrate/ATP mixture, 2.5 μL/well 1× Kinase Assay Buffer containing 16% DMSO, and 5 μL/well 2× c-MET kinase solution were added to the 384-well plate. The final concentration of DMSO in the reaction system was 4%. • 7. The mixture was mixed well and then centrifuged and reacted at room temperature in dark for 60 min. • 8. Termination of the enzymatic reaction: 5 μL of 4× stop solution was taken with a transfer pipette to the wells of the 384-well plate, mixed and then centrifuged, and reacted at room temperature for 5 min. • 9. Development of the reaction: 5 μL of 4× detection solution was taken with a transfer pipette to the wells of the 384-well plate for color development, and the mixture was mixed and then centrifuged and reacted at room temperature for 60 min. • 10. The 384-well plate was placed into the Envision plate reader and the signal was detected using the appropriate program. • 11. Analysis and processing of the raw data: • 12. The drug concentrations and the corresponding inhibition rates were input into GraphPad Prism5 for calculation, and the inhibition rate of the compounds were calculated as follows: inhibition rate (%)=(reading of positive well−reading of experimental well)/(reading of positive control well−reading of negative control well)×100%. Processing with GraphPad Prism5 software yielded the corresponding IC50 values (the concentration of the compound at which 50% of the highest inhibition of the enzyme is achieved).

[2] = target: TRKA kinase (Homo sapiens (Human), UniProt P04629); assay: Assay of small molecular compounds for inhibiting the activity of TRKA kinase (LANCE TR-FRET)
Sequence of TRKA kinase (P04629 33-796): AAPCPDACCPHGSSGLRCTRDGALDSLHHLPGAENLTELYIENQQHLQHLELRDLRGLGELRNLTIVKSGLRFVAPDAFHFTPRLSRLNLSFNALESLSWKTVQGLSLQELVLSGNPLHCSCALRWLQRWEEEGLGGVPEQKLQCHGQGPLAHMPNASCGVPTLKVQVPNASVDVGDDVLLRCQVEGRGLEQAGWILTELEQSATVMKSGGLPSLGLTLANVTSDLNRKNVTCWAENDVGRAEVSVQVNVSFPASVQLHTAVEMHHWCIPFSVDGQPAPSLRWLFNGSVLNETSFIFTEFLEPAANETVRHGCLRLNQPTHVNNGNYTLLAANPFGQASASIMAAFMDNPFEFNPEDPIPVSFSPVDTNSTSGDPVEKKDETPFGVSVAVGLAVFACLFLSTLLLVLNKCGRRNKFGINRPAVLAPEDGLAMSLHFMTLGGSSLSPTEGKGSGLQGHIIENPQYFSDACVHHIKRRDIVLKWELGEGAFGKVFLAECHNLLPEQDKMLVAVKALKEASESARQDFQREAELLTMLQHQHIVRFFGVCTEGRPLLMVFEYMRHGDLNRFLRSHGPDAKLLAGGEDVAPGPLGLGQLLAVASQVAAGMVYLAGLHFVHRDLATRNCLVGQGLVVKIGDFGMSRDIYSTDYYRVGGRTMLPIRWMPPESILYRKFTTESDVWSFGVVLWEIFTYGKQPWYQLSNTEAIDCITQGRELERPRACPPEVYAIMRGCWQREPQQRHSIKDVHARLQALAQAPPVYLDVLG
Protocol: The assay of small molecular compounds for inhibiting the activity of TRKA kinase is based on the LANCE TR-FRET technology of Perkin Elmer Inc., and the assay method is as follows: • 1. […] 2.5 μL of the gradient-diluted compounds were taken with a transfer pipette to a 384-well plate. • 3. Addition of enzyme: 5 μL of 2×TRKA kinase solution (with a concentration of 2 nM) was taken with a transfer pipette to the corresponding reaction well of the 384-well plate, mixed well and pre-reacted at room temperature for 5 minutes. • 4. 2.5 μL 4× Ultra ULight-labeled TK Peptide (with a concentration of 400 nM)/ATP (with a concentration of 40 μM) mixture was taken with a transfer pipette to the corresponding reaction well of the 384-well plate. • 5. Negative control: 2.5 μL/well 4× substrate/ATP mixture and 7.5 μL 1× Kinase Assay Buffer were added to the wells of the 384-well plate.
(§1) Positive control: 2.5 μL/well 4× substrate/ATP mixture, 2.5 μL/well 1× Kinase Assay Buffer containing 4% DMSO, and 5 μL/well 2×TRKA kinase solution were added to the 384-well plate. The final concentration of DMSO in the reaction system was 1%. • 6. The mixture was mixed well and then centrifuged and reacted at room temperature in dark for 60 min. • 7. Termination of the enzymatic reaction: 5 μL of 4× stop solution was taken with a transfer pipette to the wells of the 384-well plate, mixed and then centrifuged, and reacted at room temperature for 5 min. • 8. Development of the reaction: 5 μL of 4× detection solution was taken with a transfer pipette to the wells of the 384-well plate for color development, and the mixture was mixed and then centrifuged and reacted at room temperature for 60 min. • 9. The 384-well plate was placed into the Envision plate reader and the signal was detected using the appropriate program.

[3] = target: MER kinase (Homo sapiens (Human), UniProt Q12866); assay: Assay of small molecular compounds for inhibiting the activity of MER kinase (LANCE TR-FRET)
Sequence of MER kinase (Q12866 21-999): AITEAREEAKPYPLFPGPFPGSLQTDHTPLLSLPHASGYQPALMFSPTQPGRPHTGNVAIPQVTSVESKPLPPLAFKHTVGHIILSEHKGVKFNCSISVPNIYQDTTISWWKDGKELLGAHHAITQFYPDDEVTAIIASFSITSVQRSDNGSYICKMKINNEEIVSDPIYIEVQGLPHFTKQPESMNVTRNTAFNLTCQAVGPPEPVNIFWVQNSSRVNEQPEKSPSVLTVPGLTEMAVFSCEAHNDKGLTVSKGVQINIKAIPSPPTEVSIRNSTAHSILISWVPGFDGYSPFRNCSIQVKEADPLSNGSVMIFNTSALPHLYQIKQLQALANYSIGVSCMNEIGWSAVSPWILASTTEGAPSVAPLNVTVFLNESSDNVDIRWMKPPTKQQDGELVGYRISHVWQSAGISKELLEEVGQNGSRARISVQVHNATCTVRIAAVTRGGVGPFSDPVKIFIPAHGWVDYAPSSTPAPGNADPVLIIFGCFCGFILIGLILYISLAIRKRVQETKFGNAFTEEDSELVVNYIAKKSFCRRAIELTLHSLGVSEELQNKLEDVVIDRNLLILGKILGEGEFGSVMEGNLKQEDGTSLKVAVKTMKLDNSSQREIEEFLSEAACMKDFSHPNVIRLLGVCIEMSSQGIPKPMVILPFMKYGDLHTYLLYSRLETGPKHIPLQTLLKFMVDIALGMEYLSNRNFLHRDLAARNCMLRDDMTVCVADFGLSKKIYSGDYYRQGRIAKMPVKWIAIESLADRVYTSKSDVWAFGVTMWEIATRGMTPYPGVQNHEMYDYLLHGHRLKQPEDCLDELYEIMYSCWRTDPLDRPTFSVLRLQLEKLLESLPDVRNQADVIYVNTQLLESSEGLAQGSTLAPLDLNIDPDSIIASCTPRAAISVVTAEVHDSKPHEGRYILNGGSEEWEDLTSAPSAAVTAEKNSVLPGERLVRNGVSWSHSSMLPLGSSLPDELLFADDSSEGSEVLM
Protocol: The assay of small molecular compounds for inhibiting the activity of MER kinase is based on the LANCE TR-FRET technology of Perkin Elmer Inc., and the assay method is as follows: • 1. Dilution of compounds: a total of 11 concentrations were obtained using a 3-fold gradient dilution from the highest concentration of 2500 nM (the maximum final concentration of the drug used in this assay was 2500 nM, and the minimum final concentration was 0.042 nM). • 2. 2.5 μL of the gradient-diluted compounds were taken with a transfer pipette to a 384-well plate. • 3. Addition of enzyme: 5 μL of 2×MER kinase solution (with a concentration of 1 nM) was taken with a transfer pipette to the corresponding reaction well of the 384-well plate, mixed well and pre-reacted at room temperature for 5 minutes. • 4. 2.5 μL 4× ULight-labeled Ploy GT (with a concentration of 200 nM)/ATP (with a concentration of 20 μM) mixture was taken with a transfer pipette to the corresponding reaction well of the 384-well plate. • 5. Negative control: 2.5 μL/well 4× substrate/ATP mixture and 7.5 μL 1× Kinase Assay Buffer were added to the wells of the 384-well plate.
as §1, with “2×MER” for “2×TRKA”, “program. • 10. Analysis and processing of the raw data:” for “program.”
The drug concentrations and the corresponding inhibition rates were input into GraphPad Prism5 for calculation, and the inhibition rate of the compounds were calculated as follows: inhibition rate (%)=(reading of positive well−reading of experimental well)/(reading of positive control well−reading of negative control well)×100%. Processing with GraphPad Prism5 software yielded the corresponding IC50 values (the concentration of the compound at which 50% of the highest inhibition of the enzyme is achieved).

Sequence of c-MET kinase (P08581 25-1390): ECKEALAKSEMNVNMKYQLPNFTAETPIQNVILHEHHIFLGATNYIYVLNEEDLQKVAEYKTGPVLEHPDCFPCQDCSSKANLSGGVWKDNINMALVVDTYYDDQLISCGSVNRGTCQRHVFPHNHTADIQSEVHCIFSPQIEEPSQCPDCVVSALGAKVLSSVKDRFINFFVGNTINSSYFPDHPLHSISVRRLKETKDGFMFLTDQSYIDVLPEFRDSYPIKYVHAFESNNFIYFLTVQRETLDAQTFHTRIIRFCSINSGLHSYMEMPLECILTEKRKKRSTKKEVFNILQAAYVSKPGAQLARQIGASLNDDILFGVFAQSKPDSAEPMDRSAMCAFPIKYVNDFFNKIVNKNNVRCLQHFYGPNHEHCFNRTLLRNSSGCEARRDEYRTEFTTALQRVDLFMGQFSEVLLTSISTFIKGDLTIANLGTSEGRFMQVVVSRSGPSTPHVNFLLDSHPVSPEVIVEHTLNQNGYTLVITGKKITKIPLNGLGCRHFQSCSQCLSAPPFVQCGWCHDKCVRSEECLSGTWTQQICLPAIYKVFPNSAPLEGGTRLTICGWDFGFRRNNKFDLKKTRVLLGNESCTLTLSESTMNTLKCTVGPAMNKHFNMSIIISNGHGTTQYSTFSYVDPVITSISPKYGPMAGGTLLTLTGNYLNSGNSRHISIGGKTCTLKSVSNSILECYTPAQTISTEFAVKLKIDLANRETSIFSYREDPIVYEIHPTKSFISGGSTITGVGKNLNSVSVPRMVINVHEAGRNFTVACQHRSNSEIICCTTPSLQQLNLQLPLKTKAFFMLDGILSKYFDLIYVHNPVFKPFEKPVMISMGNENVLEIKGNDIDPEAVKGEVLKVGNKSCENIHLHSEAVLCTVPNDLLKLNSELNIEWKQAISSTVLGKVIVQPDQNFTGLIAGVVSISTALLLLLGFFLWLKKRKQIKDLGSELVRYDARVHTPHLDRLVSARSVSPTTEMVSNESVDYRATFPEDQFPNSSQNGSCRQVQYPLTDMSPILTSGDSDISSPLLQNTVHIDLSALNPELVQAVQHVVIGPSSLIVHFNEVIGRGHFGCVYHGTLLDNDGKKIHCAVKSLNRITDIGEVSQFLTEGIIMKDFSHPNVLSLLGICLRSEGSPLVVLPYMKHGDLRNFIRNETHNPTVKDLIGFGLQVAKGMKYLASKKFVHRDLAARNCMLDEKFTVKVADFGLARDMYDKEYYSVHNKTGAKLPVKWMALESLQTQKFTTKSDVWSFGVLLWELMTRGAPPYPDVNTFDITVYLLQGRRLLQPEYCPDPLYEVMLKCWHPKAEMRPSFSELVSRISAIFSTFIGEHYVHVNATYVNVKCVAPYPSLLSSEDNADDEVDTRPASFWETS

Compound	IC50 [1] [nM]	IC50 [2] [nM]	IC50 [3] [nM]
COc1cc2nccc(Oc3ccc(NC(=O)c4cn(CC5CC5)c(=O)n(-c5ccc(F)cc5)c4=O)cc3F)c2c2c1OCCO2 [Example 48, N-(3-fluoro-4-((5-methoxy-2,3-dihydro-[1,4]dioxino[2,3-f]quinolin-10-yl)oxy)phenyl)-3-(4-fluorophenyl)-1-(cyclopropylmethyl)-2,4-dioxo-1,2,3,4-tetrahydropyrimidine-5-carboxamide]	≤ 50	50 to 500	50 to 500
CC(C)COc1cc2nccc(Oc3ccc(NC(=O)c4cn(C)c(=O)n(-c5ccc(F)cc5)c4=O)cc3F)c2c2c1OCCO2 [Example 83, N-(3-fluoro-4-((5-(isobutoxy)-2,3-dihydro-[1,4]dioxino[2,3-f]quinolin-10-yl)oxy)phenyl)-3-(4-fluorophenyl)-1-methyl-2,4-dioxo-1,2,3,4-tetrahydropyrimidine-5-carboxamide]	500 to 5000	50 to 500	50 to 500
Cn1cc(C(=O)Nc2ccc(Oc3ccnc4cc(OCC5CC5)c5c(c34)OCCO5)c(F)c2)c(=O)n(-c2ccc(F)cc2)c1=O [Example 84, N-(3-fluoro-4-((5-(cyclopropylmethoxy)-2,3-dihydro-[1,4]dioxino[2,3-f]quinolin-10-yl)oxy)phenyl)-3-(4-fluorophenyl)-1-methyl-2,4-dioxo-1,2,3,4-tetrahydropyrimidine-5-carboxamide]	50 to 500	50 to 500	50 to 500
CC(C)n1cc(C(=O)Nc2ccc(Oc3ccnc4cc(OC5COC5)c5c(c34)OCCO5)c(F)c2)c(=O)n(-c2ccc(F)cc2)c1=O [Example 89, N-(3-fluoro-4-((5-((oxetan-3-yl)oxy)-2,3-dihydro-[1,4]dioxino[2,3-f]quinolin-10-yl)oxy)phenyl)-3-(4-fluorophenyl)-1-isopropyl-2,4-dioxo-1,2,3,4-tetrahydropyrimidine-5-carboxamide]	50 to 500	50 to 500	≤ 50
COc1cc2nccc(Oc3ccc(NC(=O)c4cn(CCCN5CCOCC5)c(=O)n(-c5ccc(F)cc5)c4=O)cc3F)c2c2c1OCCO2 [Example 102, N-(3-fluoro-4-((5-methoxy-2,3-dihydro-[1,4]dioxino[2,3-f]quinolin-10-yl)oxy)phenyl)-3-(4-fluorophenyl)-1-(3-morpholinopropyl)-2,4-dioxo-1,2,3,4-tetrahydropyrimidine-5-carboxamide]	≤ 50	50 to 500	≤ 50
COc1cc2nccc(Oc3ccc(NC(=O)c4cn(C(C)C)c(=O)n(-c5ccc(C)cc5)c4=O)cc3F)c2c2c1OCCO2 [Example 107, N-(3-fluoro-4-((5-methoxy-2,3-dihydro-[1,4]dioxino[2,3-f]quinolin-10-yl)oxy)phenyl)-3-(4-methylphenyl)-1-isopropyl-2,4-dioxo-1,2,3,4-tetrahydropyrimidine-5-carboxamide]	50 to 500	500 to 5000	≤ 50
COc1cc2nccc(Oc3ccc(NC(=O)c4cn(C(C)C)c(=O)n(-c5ccc(Cl)cc5)c4=O)cc3F)c2c2c1OCCO2 [Example 108, N-(3-fluoro-4-((5-methoxy-2,3-dihydro-[1,4]dioxino[2,3-f]quinolin-10-yl)oxy)phenyl)-3-(4-chlorophenyl)-1-isopropyl-2,4-dioxo-1,2,3,4-tetrahydropyrimidine-5-carboxamide]	50 to 500	500 to 5000	50 to 500
COc1cc2nccc(Oc3ccc(NC(=O)c4cn(C(C)C)c(=O)n(-c5ccccc5F)c4=O)cc3F)c2c2c1OCCO2 [Example 110, N-(3-fluoro-4-((5-methoxy-2,3-dihydro-[1,4]dioxino[2,3-f]quinolin-10-yl)oxy)phenyl)-3-(2-fluorophenyl)-1-isopropyl-2,4-dioxo-1,2,3,4-tetrahydropyrimidine-5-carboxamide]	≤ 50	500 to 5000	≤ 50
COc1cc2nccc(Oc3ccc(NC(=O)c4cn(C(C)C)c(=O)n(Cc5ccc(F)cc5)c4=O)cc3F)c2c2c1OCCO2 [Example 111, N-(3-fluoro-4-((5-methoxy-2,3-dihydro-[1,4]dioxino[2,3-f]quinolin-10-yl)oxy)phenyl)-3-(4-fluorobenzyl)-1-isopropyl-2,4-dioxo-1,2,3,4-tetrahydropyrimidine-5-carboxamide]	500 to 5000	500 to 5000	50 to 500
COc1cc2nccc(Oc3cc(Cl)c(NC(=O)c4cn(C(C)C)c(=O)n(-c5ccc(F)cc5)c4=O)cc3F)c2c2c1OCCO2 [Example 118, N-(2-chloro-5-fluoro-4-((5-methoxy-2,3-dihydro-[1,4]dioxino[2,3-f]quinolin-10-yl)oxy)phenyl)-3-(4-fluorophenyl)-1-isopropyl-2,4-dioxo-1,2,3,4-tetrahydropyrimidine-5-carboxamide]	50 to 500	50 to 500	50 to 500
Cn1cc(C(=O)Nc2ccc(Oc3ccnc4cc(OCCCC#N)c5c(c34)OCCO5)cc2Cl)c(=O)n(-c2ccc(F)cc2)c1=O [Example 133, N-(2-chloro-4-((5-(3-cyanopropoxy)-2,3-dihydro-[1,4]dioxino[2,3-f]quinolin-10-yl)oxy)phenyl)-3-(4-fluorophenyl)-1-methyl-2,4-dioxo-1,2,3,4-tetrahydropyrimidine-5-carboxamide]	≤ 50	50 to 500	500 to 5000
